The source made the active and inactive calls. The calls are words filed in the database; no cut-off is given here.
Key:
Glutamate NMDA receptor = experiment: Displacement of [3H]MDL105519 from NMDA receptor glycine site in rat brain homogenate; format: tissue-based
[1] = Displacement of [3H]CNQX from AMPA receptor in rat brain homogenate; format: tissue-based
Rattus norvegicus [2] = species on record: Rattus norvegicus; experiment: Inhibition of AMPA receptor in rat brain homogenate at 100 uM; format: tissue-based
[3] = molecular target: T1, Glutamate NMDA receptor (Rattus norvegicus) (UniProt P35439+Q00959+Q00960+Q00961+Q62645+Q8VHN2+Q9R1M7); experiment: Inhibition of NMDA receptor glycine site in rat brain homogenate at 100 uM; format: tissue-based
[4] = molecular target: T1, Glutamate NMDA receptor (Rattus norvegicus); experiment: Inhibition of NMDA receptor glycine site in rat brain homogenate at 10 uM; format: tissue-based
Mus musculus [5] = experiment: Anticonvulsant activity in po dosed OF1 mouse assessed as inhibition of electroshock-induced seizures administered 1 hr before electroshock challenge; format: functional
[6] = Dissociation constant, pKa of the compound; format: physicochemical
Rattus norvegicus [7] = species on record: Rattus norvegicus; experiment: Inhibition of AMPA receptor in rat brain homogenate at 10 uM; format: tissue-based
Mus musculus [8] = experiment: Anticonvulsant activity in po dosed DBA2 mouse assessed as inhibition of sound-induced seizures; format: functional, organism-based
Mus musculus [9] = experiment: Anticonvulsant activity in OF1 mouse assessed as inhibition of electroshock-induced seizures at 30 mg/kg, ip administered 1 hr before electroshock challenge; format: functional; settings: route intraperitoneal
[10] = molecular target: Glutamate receptor 2 (Homo sapiens) (UniProt P42262); experiment: Binding affinity to human GluA2 by X-ray crystallography
Mus musculus [11] = experiment: Anticonvulsant activity in OF1 mouse assessed as inhibition of electroshock-induced seizures at 30 mg/kg, po administered 1 hr before electroshock challenge; format: functional

Chain of Glutamate receptor 2 (Homo sapiens) (P42262 whole entry): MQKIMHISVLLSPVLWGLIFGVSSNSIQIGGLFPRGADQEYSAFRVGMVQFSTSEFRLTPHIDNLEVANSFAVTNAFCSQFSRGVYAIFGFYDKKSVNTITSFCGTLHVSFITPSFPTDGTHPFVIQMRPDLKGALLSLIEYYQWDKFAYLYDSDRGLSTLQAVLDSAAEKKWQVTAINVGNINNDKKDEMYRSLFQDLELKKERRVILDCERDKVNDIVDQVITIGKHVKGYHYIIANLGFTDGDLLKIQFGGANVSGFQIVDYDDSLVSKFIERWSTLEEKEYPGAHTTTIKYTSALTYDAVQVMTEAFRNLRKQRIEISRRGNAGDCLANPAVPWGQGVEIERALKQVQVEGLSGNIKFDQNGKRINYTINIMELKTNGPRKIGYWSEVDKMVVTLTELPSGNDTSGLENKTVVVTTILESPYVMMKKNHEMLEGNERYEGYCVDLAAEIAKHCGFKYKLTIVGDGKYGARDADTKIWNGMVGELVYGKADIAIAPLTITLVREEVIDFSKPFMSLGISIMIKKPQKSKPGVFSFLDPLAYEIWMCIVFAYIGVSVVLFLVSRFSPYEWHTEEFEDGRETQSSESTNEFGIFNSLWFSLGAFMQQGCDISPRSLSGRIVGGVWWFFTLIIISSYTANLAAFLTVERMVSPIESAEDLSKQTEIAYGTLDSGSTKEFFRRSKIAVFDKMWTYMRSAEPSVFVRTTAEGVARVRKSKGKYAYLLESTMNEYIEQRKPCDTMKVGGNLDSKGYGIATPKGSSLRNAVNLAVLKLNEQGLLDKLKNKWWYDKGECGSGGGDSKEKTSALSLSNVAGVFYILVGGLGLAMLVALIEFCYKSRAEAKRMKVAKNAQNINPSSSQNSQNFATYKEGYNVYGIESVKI

SMILES	IC50 [1]	inhibition [4]	further results
CCS(=O)(=O)Nn1c(=O)[nH]c2cc(Cl)ccc2c1=O	2.3 µM	–	IC50 (Glutamate NMDA receptor): 35 µM
Cn1c(=O)n(NS(C)(=O)=O)c(=O)c2ccc(Cl)cc21	–	–	inhibition (Rattus norvegicus [2]): 45%; inhibition [3]: 36%
Cn1cnc(S(=O)(=O)Nn2c(=O)[nH]c3cc(Cl)ccc3c2=O)c1	1.6 µM	–	–
CS(=O)(=O)Nn1c(=O)[nH]c2ccc(Cl)cc2c1=O	34 µM	–	inhibition [3]: 50%
CCc1ccc2c(=O)n(NS(C)(=O)=O)c(=O)[nH]c2c1	3 µM	–	ED50 (Mus musculus [5]): 16 mg/kg
CS(=O)(=O)Nn1c(=O)[nH]c2cc(C#N)ccc2c1=O	0.75 µM	28%	–
CS(=O)(=O)Nn1c(=O)[nH]c2c(Cl)cccc2c1=O	> 100 µM	–	inhibition [3]: 37%
O=c1[nH]c2cc(Cl)ccc2c(=O)n1NS(=O)(=O)c1ccccc1	4.9 µM	–	IC50 (Glutamate NMDA receptor): 9.3 µM
CS(=O)(=O)Nn1c(=O)[nH]c2cc(C(=O)O)ccc2c1=O	–	–	inhibition (Rattus norvegicus [7]): 0%
CS(=O)(=O)Nn1c(=O)[nH]c2cc(-c3ccccc3)ccc2c1=O	–	–	inhibition (Rattus norvegicus [7]): 36%; inhibition [3]: 36%
COc1ccc2c(=O)n(NS(C)(=O)=O)c(=O)[nH]c2c1	3.7 µM	22%	inhibition in vivo at 30 mg/kg (Mus musculus [11]): 60%
CS(=O)(=O)Nn1c(=O)[nH]c2cc(C(F)(F)F)ccc2c1=O	0.92 µM	13%	ED50 (Mus musculus [5]): 54 mg/kg; IC50 (Glutamate NMDA receptor): 17.8 µM
CS(=O)(=O)Nn1c(=O)[nH]c2cc(C3CCCC3)ccc2c1=O	–	–	inhibition (Rattus norvegicus [7]): 25%
CS(=O)(=O)Nn1c(=O)[nH]c2cc(S(C)(=O)=O)ccc2c1=O	–	–	IC50 (Glutamate NMDA receptor): > 100 µM; inhibition (Rattus norvegicus [7]): 42%
CN(n1c(=O)[nH]c2cc(Cl)ccc2c1=O)S(C)(=O)=O	–	–	inhibition (Rattus norvegicus [2]): 12%; inhibition [3]: 18%

Continued, in another order:

IC50 [1]	inhibition [4]	SMILES	further results
1.2 µM	16%	CS(=O)(=O)Nn1c(=O)[nH]c2cc([N+](=O)[O-])ccc2c1=O	–
2.9 µM	–	O=c1[nH]c2cc(Cl)ccc2c(=O)n1NS(=O)(=O)Cc1ccccc1	IC50 (Glutamate NMDA receptor): 0.21 µM
1.1 µM	26%	CS(=O)(=O)Nn1c(=O)[nH]c2cc(CCc3ccccc3)ccc2c1=O	–
29 µM	–	CS(=O)(=O)Nn1c(=O)[nH]c2cccc(Cl)c2c1=O	inhibition [3]: 34%
2.4 µM	32%	CS(=O)(=O)Nn1c(=O)[nH]c2cc(Cl)ccc2c1=O	ED50 (Mus musculus [5]): 23 mg/kg; pKa [6]: 6.9
9.7 µM	13%	Cc1ccc2c(=O)n(NS(C)(=O)=O)c(=O)[nH]c2c1	ED50 (Mus musculus [5]): 9 mg/kg
4.9 µM	–	CC(C)(C)c1ccc2c(=O)n(NS(C)(=O)=O)c(=O)[nH]c2c1	ED50 (Mus musculus [5]): 29.5 mg/kg; IC50 (Glutamate NMDA receptor): > 100 µM
0.52 µM	–	CS(=O)(=O)Nn1c(=O)[nH]c2cc(Cl)c(-n3ccnc3)cc2c1=O	IC50 (Glutamate NMDA receptor): 17.2 µM
57 µM	–	CS(=O)(=O)Nn1c(=O)[nH]c2ccccc2c1=O	inhibition [3]: 48%
0.082 µM	24%	CS(=O)(=O)Nn1c(=O)[nH]c2cc([N+](=O)[O-])c(-n3ccnc3)cc2c1=O	inhibition (Mus musculus [8]): inactive; inhibition (Mus musculus [5]): inactive; inhibition in vivo at 30 mg/kg (Mus musculus [9]): 40%; Activity [10]: Active
1.9 µM	–	C=Cc1ccc2c(=O)n(NS(C)(=O)=O)c(=O)[nH]c2c1	IC50 (Glutamate NMDA receptor): > 10 µM
2.2 µM	49%	CS(=O)(=O)Nn1c(=O)[nH]c2cc(Br)ccc2c1=O	–
8.2 µM	17%	CS(=O)(=O)Nn1c(=O)[nH]c2cc(F)ccc2c1=O	–
